The text below walks through data of ChEMBL document CHEMBL1144726, “"Virtual fragment linking": an approach to identify potent binders from low affinity fragment hits” (J Med Chem, 2008).

The IC50 is the point on the concentration scale where inhibition reaches its midpoint. High values mean weaker potency in that assay, low ones greater potency in that assay.

Nitric oxide synthase, inducible, sequence (P35228 whole entry): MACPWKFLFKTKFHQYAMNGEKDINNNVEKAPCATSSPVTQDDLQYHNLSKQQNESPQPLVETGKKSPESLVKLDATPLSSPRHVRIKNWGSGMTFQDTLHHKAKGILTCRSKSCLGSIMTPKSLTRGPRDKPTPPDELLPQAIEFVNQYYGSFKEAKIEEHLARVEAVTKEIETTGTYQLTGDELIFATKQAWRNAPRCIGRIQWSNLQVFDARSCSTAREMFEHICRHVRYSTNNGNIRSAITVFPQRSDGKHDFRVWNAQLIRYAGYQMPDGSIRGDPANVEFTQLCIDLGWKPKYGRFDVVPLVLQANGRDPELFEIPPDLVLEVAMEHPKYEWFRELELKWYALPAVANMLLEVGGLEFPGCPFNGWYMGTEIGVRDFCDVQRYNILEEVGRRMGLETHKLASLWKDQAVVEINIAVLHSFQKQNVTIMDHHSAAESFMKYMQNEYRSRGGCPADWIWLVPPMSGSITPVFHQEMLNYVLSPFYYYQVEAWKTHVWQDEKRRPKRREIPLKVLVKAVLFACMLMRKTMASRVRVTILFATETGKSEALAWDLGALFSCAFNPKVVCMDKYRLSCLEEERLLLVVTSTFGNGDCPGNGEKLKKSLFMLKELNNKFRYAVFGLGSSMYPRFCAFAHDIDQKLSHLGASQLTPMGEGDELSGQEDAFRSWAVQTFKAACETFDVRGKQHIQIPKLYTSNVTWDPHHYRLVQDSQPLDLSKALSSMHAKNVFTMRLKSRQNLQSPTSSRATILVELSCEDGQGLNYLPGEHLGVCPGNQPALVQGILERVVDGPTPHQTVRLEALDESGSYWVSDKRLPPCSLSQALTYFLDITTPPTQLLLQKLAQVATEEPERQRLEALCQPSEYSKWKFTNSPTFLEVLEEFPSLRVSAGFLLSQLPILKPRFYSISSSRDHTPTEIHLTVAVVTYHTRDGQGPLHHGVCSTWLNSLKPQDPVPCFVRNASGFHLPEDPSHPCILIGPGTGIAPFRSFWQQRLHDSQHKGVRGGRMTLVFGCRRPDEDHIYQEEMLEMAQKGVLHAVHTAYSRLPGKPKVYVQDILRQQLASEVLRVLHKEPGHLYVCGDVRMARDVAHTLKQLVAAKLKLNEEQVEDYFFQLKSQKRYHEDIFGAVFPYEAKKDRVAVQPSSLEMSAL

The target in one test is Estrogen receptor beta (Homo sapiens, UniProt Q92731).
Estrogen receptor beta, sequence (Q92731 whole entry): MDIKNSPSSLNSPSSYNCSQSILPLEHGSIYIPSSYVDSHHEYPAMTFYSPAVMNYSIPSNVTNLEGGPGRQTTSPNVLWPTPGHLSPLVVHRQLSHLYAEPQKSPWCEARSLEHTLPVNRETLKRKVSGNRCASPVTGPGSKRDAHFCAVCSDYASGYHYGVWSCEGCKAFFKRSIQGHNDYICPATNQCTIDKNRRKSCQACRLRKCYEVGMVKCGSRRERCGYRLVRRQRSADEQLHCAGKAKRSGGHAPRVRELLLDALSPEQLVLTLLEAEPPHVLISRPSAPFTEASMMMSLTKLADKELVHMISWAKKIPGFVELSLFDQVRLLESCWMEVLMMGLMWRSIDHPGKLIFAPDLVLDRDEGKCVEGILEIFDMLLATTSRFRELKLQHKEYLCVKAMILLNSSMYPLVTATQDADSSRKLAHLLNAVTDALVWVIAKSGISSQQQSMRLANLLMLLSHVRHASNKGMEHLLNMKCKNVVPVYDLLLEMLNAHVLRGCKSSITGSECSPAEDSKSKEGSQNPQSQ
Regarding `Oc1ccc2nn(-c3ccccc3)cc2c1`, the midpoint of inhibition, the IC50, lay at 10000 nM. Molecule `Cc1cc(-c2cccc(Cl)c2)ccc1O` returned an IC50 of 2100 nM. On to `COc1ccc(-c2ccc(O)cc2)cc1`, for which the IC50 turned out to be 2400 nM. This IC50 and that of the molecule before are within 1.5-fold of each other. Same read-out and setting: to `N#Cc1ccccc1-c1ccc(O)cc1` belongs 1800 nM.

`Nc1ccc(-c2ccc(O)cc2)cc1Cl` returned a half-maximal inhibitory concentration (IC50) of 2900 nM. The same measure, in the same setting: then `Cc1cc(O)ccc1-c1ccccc1`, with 4000 nM. For `Oc1ccc(-c2cccc(F)c2)cc1`, the IC50 is 1200 nM. This IC50 is about 3.3-fold lower than that of the molecule before. With `Oc1ccc(-n2nc3ccccc3c2Cl)cc1`, the IC50 is 1100 nM. The same measure, in the same setting: then `Oc1ccc(-c2ccccc2)cc1Cl`, with 3100 nM.

A further test concerns the target Nitric oxide synthase, inducible (Homo sapiens, UniProt P35228).
With `Cc1cccc2c1C(N)=NC(C1CCC1)N2` (stereo not given), the 50% inhibitory concentration (IC50) came to 1200 nM.
